Laboratory results reported in the NIST ThermoML archive (doi:10.1021/acs.jced.5b00989).

Assay: molar heat capacity at constant pressure; xn = mol fraction of the nth substance listed
Conditions: 100 kPa, Liquid, Small sample (50 mg) DSC

O=C(O)CC(O)(CC(=O)O)C(=O)O [citric acid] + C[N+](C)(C)CCO.[Cl-]
x2 = 0.33
Conditions	molar heat capacity at constant pressure [J/K/mol]
298.15 K	422
300.65 K	422.9
303.15 K	424
305.65 K	425.2
308.15 K	426.1
310.65 K	427.2
313.15 K	428.7
315.65 K	429.8
318.15 K	430.6
320.65 K	431.9
323.15 K	433
325.65 K	433.5
328.15 K	435.4
330.65 K	436.7
333.15 K	437.5
335.65 K	438.6
338.15 K	439.7
340.65 K	440.6
343.15 K	442.1
345.65 K	446.1
348.15 K	447.2
350.65 K	446.8
353.15 K	449.4

O=C(O)C(=O)O [ethanedioic acid] + C[N+](C)(C)CCO.[Cl-]
x2 = 0.33
Conditions	molar heat capacity at constant pressure [J/K/mol]
298.15 K	270.8
300.65 K	271.8
303.15 K	272.1
305.65 K	272.7
308.15 K	273.6
310.65 K	274.6
313.15 K	275.4
315.65 K	276.3
318.15 K	276.8
320.65 K	277
323.15 K	277.1
325.65 K	277.4
328.15 K	277.8
330.65 K	278.3
333.15 K	278.7
335.65 K	279.6
338.15 K	280
340.65 K	280.6
343.15 K	281.2
345.65 K	281.7
348.15 K	281.9
350.65 K	282.2
353.15 K	282.9

C[P+](c1ccccc1)(c1ccccc1)c1ccccc1.[Br-] [methyltriphenylphosphonium bromide] + O=C(O)CC(=O)O
x1 = 0.4
Conditions	molar heat capacity at constant pressure [J/K/mol]
298.15 K	336.9
300.65 K	338
303.15 K	339.2
305.65 K	340
308.15 K	341
310.65 K	342.1
313.15 K	343.1
315.65 K	343.9
318.15 K	345.2
320.65 K	346
323.15 K	346.6
325.65 K	347.4
328.15 K	348.4
330.65 K	350.1
333.15 K	350.3
335.65 K	350.7
338.15 K	351.3
340.65 K	351.5
343.15 K	351.9
345.65 K	352.1
348.15 K	352.5
350.65 K	354
353.15 K	354.2

C[P+](c1ccccc1)(c1ccccc1)c1ccccc1.[Br-] [methyltriphenylphosphonium bromide] + OCC(O)CO
x1 = 0.25
Conditions	molar heat capacity at constant pressure [J/K/mol]
298.15 K	328.5
300.65 K	329.6
303.15 K	330.5
305.65 K	331.6
308.15 K	332.7
310.65 K	333.7
313.15 K	334.8
315.65 K	335.8
318.15 K	336.5
320.65 K	338.1
323.15 K	339.4
325.65 K	339.6
328.15 K	340.8
330.65 K	341.8
333.15 K	342.6
335.65 K	343.5
338.15 K	344.6
340.65 K	345.7
343.15 K	346.7
345.65 K	347.8
348.15 K	347.9
350.65 K	348.3
353.15 K	350.2
